In one data set the target is T1, H^+ /K^+ ATPase (Sus scrofa, UniProt P19156).
T1 construct: prepared from the stomach of pig; from tissue; host or cells: pig stomach
Put plainly: H^+ /K^+ ATPase Inhibitory Activity Assay. The data set is classed as biochemical. The conditions noted are these: pig stomach enzyme, 37° C., pH 6.2; for inhibition at 10 µg/mL: 10 μg/ml. The procedure: H^+ /K^+ ATPase Inhibitory Activity Assay
The inhibitory activity was determined in the following manner using H^+ /K^+ ATPase prepared from the stomach of pig.
H^+ /K^+ ATPase dilute solution (100 μl, 50 μg as protein) was added to PIPES-tris (pH 6.2) buffer solution (440 μl) containing 4 mM magnesium chloride and 20 mM potassium chloride. Further, 0.1% ethanol solution of nigericin (5 μl) was added. To the solution was added dimethyl sulfoxide (5 μl) and the mixture was incubated at 37° C. for 30 minutes. Then 10 mM PIPES-tris buffer solution (450 μl) containing 4 mM ATP disodium was added to initiate the reaction. 30 minutes later, 50% trichloroacetic acid (1 μl) was added to cease the reaction. The amount of phosphorus released in this reaction was determined by a color development determination at 800 nm according to D. Lebel, G. Poirier et al. method (Anal. Biochem. 85, 86-89, 1978), at which the reading of the absorbance is taken as C1. On the other hand, a similar determination was carried out in the absence of potassium chloride, at which the reading of the absorbance is taken as C2. The inhibitory activity was determined by a similar procedure as in the above reaction, but adding 5 μl of a dimethyl sulfoxide solution containing 1 to 20 mg/ml of the inhibiting substance (test compound), instead of dimethyl sulfoxide. In that case, the readings of the absorbance in the presence and absence of potassium chloride are taken as T1 and T2, respectively.
% Inhibition (I) of the inhibiting substance (test compound) is calculated by the following equation.

The conditions of data set [1]: background statement; cited from earlier work.

T1 sequence (P19156 2-1034 limits assumed): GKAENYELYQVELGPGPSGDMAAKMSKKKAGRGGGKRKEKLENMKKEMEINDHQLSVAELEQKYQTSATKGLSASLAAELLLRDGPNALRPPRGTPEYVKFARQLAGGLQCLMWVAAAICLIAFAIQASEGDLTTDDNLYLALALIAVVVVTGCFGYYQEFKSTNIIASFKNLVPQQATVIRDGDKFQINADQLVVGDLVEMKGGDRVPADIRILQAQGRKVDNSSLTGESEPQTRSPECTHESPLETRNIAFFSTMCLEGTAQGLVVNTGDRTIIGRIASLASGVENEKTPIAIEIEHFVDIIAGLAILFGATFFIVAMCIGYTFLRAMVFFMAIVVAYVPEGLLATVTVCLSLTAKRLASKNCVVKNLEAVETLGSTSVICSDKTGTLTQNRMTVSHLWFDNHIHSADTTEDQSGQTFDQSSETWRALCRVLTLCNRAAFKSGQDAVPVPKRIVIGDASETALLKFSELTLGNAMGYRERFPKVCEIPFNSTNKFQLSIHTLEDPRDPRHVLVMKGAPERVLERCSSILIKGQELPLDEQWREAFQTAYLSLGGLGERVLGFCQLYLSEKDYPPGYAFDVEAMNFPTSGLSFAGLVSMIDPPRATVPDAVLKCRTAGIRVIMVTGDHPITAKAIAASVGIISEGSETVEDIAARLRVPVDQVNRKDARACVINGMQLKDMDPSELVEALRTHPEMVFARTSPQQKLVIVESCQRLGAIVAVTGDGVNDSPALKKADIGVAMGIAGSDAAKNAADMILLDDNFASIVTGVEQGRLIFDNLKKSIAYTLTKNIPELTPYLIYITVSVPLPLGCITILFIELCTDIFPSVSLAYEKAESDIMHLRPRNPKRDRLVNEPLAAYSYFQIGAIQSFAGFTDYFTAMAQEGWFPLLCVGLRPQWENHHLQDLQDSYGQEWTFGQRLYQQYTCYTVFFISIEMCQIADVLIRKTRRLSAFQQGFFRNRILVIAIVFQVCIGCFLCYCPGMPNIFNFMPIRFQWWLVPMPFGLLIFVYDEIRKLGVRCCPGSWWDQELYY
T1 sequence (P18434 whole entry partner): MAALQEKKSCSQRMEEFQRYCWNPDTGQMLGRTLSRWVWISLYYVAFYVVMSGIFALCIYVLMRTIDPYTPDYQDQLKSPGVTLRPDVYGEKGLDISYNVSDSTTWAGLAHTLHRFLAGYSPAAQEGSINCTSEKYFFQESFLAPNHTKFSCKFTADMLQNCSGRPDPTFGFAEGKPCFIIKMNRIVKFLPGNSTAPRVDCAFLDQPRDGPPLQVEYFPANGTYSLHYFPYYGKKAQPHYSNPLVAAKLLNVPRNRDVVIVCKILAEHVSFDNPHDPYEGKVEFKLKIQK

`CCN1CCC2c3cc(C(C)c4[nH]c5ccccc5c4CCN(Cc4ccccc4)C(=O)OCc4ccccc4)ccc3N(CC)C2C1` (stereo not shown) [Example 19, 6-(1-(3-(2-Benzyl(benzyloxycarbonyl)aminoethyl)-indole-2-yl)ethyl)-2,9-diethyl-1,2,3,4,4a,9a-hexahydro-pyrido[3,4-b]indole] gave an inhibition at 10 µg/mL at H^+ /K^+ ATPase of 92.5%.

With `CCN1CCC2c3cc(C(O)c4c(CCOCc5ccccc5)c5ccccc5n4Cc4ccccc4)ccc3N(CC)C2C1` (stereo not shown) [Example 39, 2,9-Diethyl-6-(3-(2-benzyloxyethyl)-1-benzyl-indole-2-yl)hydroxymethyl-1,2,3,4,4a,9a-hexahydro-pyrido[3,4-b]indole], on H^+ /K^+ ATPase, the inhibition at 10 µg/mL was determined as 78.8%.

Compound `CCN1CCC2c3cc(C4CCCN(C(=O)OCc5ccccc5)CCc5c4[nH]c4ccccc54)ccc3N(CC)C2C1` (stereo not shown) [Example 11, 6-(3-Benzyloxycarbonyl-1,2,4,5,6,7-hexahydro-3H-azonino[5,4-b]indole-7-yl)-2,9-diethyl-1,2,3,4,4a,9a-hexahydropyrido[3,4-b]indole] registered an inhibition at 10 µg/mL against H^+ /K^+ ATPase of 97.5%.

The compound `CCN1CCC2c3cc(C(O)c4c(CCN(Cc5ccccc5)Cc5ccccc5)c5ccccc5n4S(=O)(=O)c4ccc(C)cc4)ccc3N(CC)C2C1` (stereo not shown) [Example 34, 2,9-Diethyl-6-(3-(2-dibenzylaminoethyl)-1-tosyl-indole-2-yl)hydroxymethyl-1,2,3,4,4a,9a-hexahydro-pyrido[3,4-b]indole] yielded an inhibition at 10 µg/mL on H^+ /K^+ ATPase of 80.8%.

For `CN1CC[C@H]2c3cc(C4CCCN(C(=O)OCc5ccccc5)CCc5c4[nH]c4ccccc54)ccc3N(C)[C@H]2C1` (stereo partly drawn) [Example 1, 4a,9a-cis-6-(3-Benzyloxycarbonyl-1,2,4,5,6,7-hexahydro-3H-azonino[5,4-b]indole-7-yl)-2,9-dimethyl-1,2,3,4,4a,9a-hexahydro-pyrido[3,4-b]indole], on H^+ /K^+ ATPase, the inhibition at 10 µg/mL stood at 54.9%.

`CCN1CCC2c3cc(C(O)c4c(CCc5ccccn5)c5ccccc5n4S(=O)(=O)c4ccc(C)cc4)ccc3N(CC)C2C1` (stereo not shown) [Example 40] displayed an inhibition at 10 µg/mL at H^+ /K^+ ATPase of 24.4%.

Consider `CCN1CCC2c3cc(C4Cc5ccccc5CN(C(=O)OCc5ccccc5)CCc5c4[nH]c4ccccc54)ccc3N(CC)C2C1` (stereo not shown) [Example 10, 6-(13-Benzyloxycarbonyl-6,7,12,13,14,15-hexahydrobenzo[h]azecino[5,4-b]indole-6-yl)-2,9-diethyl-1,2,3,4,4a,9a-hexahydro-pyrido[3,4-b]indole], for which, at H^+ /K^+ ATPase (5 μg/ml), the inhibition at 5 µg/mL came out at 98.4%.

In the case of `COc1ccc2[nH]c([S+]([O-])Cc3ncc(C)c(OC)c3C)nc2c1` (stereo not shown) [Omeprazole], the “occurrence of side effects” value in data set [1] is “occurrence of carcinoid”.

Compound `CCOC(=O)N1CCCCC(c2ccc3c(c2)C2CCN(CC)CC2N3CC)c2[nH]c3ccccc3c2CC1` (stereo not shown) [Example 4, 6-(3-Ethoxycarbonyl-1,2,3,4,5,6,7,8-octahydro-azecino[5,4-b]indole-8-yl)-2,9-diethyl-1,2,3,4,4a,9a-hexahydropyrido[3,4-b]indole] returned an inhibition at 20 µg/mL against H^+ /K^+ ATPase (20 μg/ml) of 84%.

Take `CCN1CCC2c3cc(C(OCc4ccccc4)c4c(CCN(Cc5ccccc5)Cc5ccccc5)c5ccccc5n4C)ccc3N(CC)C2C1` (stereo not shown) [Example 45, 6-(Benzyloxy-(3-(2-(N,N-dibenzylamino)ethyl)-1-methylindole-2-yl)-methyl)-2,9-diethyl-1,2,3,4,4a,9a-hexahydropyrido[3,4-b]indole]: testing at 10 µg/mL against H^+ /K^+ ATPase gave an inhibition of 65.7%.

The values above are taken from patent US5252580A, “Indole derivatives and anti-ulcer compositions thereof” (priority 1991, dated 1993).
